Consider two compounds from PMC9027910, “Synthesis and Antimycobacterial Evaluation of N-(4-(Benzyloxy)benzyl)-4-aminoquinolines” (Molecules, 2022).

Some results are limits rather than exact numbers.

Series [1] deals with M. tuberculosis H37Rv. Kind of series: Minimum inhibitory concentration (resazurin microplate). The series is classed as cell-based, Mycobacterium tuberculosis. Particulars: Mycobacterium tuberculosis; M. tuberculosis H37Rv; 7 days + 48 h resazurin; highest value of three assays. (Resazurin is reduced to fluorescent resorufin, in cell work by metabolically active cells.)
Series [2] is described as follows: Cellular viability of Vero cells (MTT and neutral red uptake). The series is classed as cell-based. Particulars: African green monkey, Vero cells; MTT method, 72 h. The procedure:
(§1) Cellular viability was determined using two distinct methods—3-(4,5-dimethylthiazol-2-yl)-2,5-diphenyl-2H-tetrazolium bromide (MTT) and neutral red uptake (NRU). The cell lines employed in the evaluation were Vero and HepG2 cells. Both cell lines were grown with Dulbecco’s Modified Eagle Medium (DMEM-Gibco, Grand Island, NY, USA) and supplemented with 10% fetal bovine serum by Invitrogen, 1% antibiotics (penicillin and streptomycin) by Gibco, and 0.1% fungizone by Gibco. For the MTT and NRU assays, Vero (2 × 10^3 cells/well) and HepG2 (4 × 10^3 cells/well) cells were seeded in 96-well culture plates and incubated overnight. The N-(4-(benzyloxy)benzyl)-4-aminoquinolines were diluted at concentrations of 3 µM using DMSO 1% and were incubated with the cell lines for 72 h at 37 °C. In the MTT investigation, after incubation for 72 h at 37 °C under 5% CO2, the cells were incubated with MTT solution (5 mg/mL, Sigma-Aldrich, St. Louis, MO, USA) for 4 h. The formazan crystals were solubilized in 100 µL of DMSO. An EZ Read 400 microplate reader (Biochrom, Cambridge, UK) was used to measure the absorbance at 570 nm. The mean absorbance of negative control wells was established as the maximum viability and the values of treated cells were calculated as the percentage of vehicle control (1% DMSO). The precipitated purple formazan crystals were directly equivalent to the number of live cells with active mitochondrial metabolism. In the NRU investigation, after 72 h of cell incubation, PBS was used to wash the cells and 200 µL of neutral red dye solution (25 µg/mL, Sigma-Aldrich, St. Louis, MO, USA) prepared in serum-free medium was added to the plate and incubated for 3 h at 37 °C under 5% CO2. Cells were washed with PBS followed by the addition of 100 µL of desorb solution (ethanol/acetic acid/water, 50:1:49) for 30 min with smooth homogenization to extract neutral red dye from the viable cells. An EZ Read 400 microplate reader was operated to measure the absorbance at 562 nm, and the cell viability was attributed as a percentage, considering the vehicle control cell (1% DMSO) as maximum cell viability.
On the technique in general: Tetrazolium dyes change colour on reduction, which living cells bring about.

Series [3] relates to Vero cells. Described as above. The series is classed as cell-based. Particulars: for Vero cell viability in words: 72 h at concentrations similar to MIC, MTT and neutral red; for CC50: neutral red method, 72 h. The protocol:
as §1

Series [4] in a line: Cellular viability of HepG2 cells (MTT and neutral red uptake). Particulars: human, HepG2 cells; MTT method, 72 h. The series is classed as cell-based. The procedure: as §1
Series [5] has as its system HepG2 cells. Described as above. Particulars: for HepG2 cell viability in words: 72 h at concentrations similar to MIC, MTT and neutral red; for CC50: neutral red method, 72 h. The series is classed as cell-based. The protocol: as §1
The format of series [6] is physicochemical. Particulars: buffer, 24 h, 10 µM. The procedure: The experiment was carried out by the Center for Applied Mass Spectrometry (CEMSA), São Paulo, Brazil. In brief, the test compounds (10 µM) were incubated at 37 °C for 24 h in the presence of pH-controlled buffer solution at pH 1.2 (simulating the pH of the stomach—0.1 M HCl), pH 7.4 (simulating plasma pH—phosphate buffer) and pH 9.1 (simulating intestinal pH—0.1 M NH4HCO3). Afterward, compounds were quantified by HPLC–MS/MS. Alprenolol drug was used as an analytical control (data not shown). The results were presented as the percentage, comparing the signal at time zero of the assay (100%) with the signal produced by concentrations after the incubation period.

Series [7] can be described thus: in vitro. The series is classed as in vitro ADME. Particulars: for Papp at 5 h, 10 µM: PAMPA, pH 7.4. The procedure: The experiment was carried out by the Center for Applied Mass Spectrometry (CEMSA), São Paulo, Brazil. In brief, the Parallel Artificial Membrane Permeability Assay (PAMPA) assay consists of quantifying the test compound (via HPLC–MS/MS) after an incubation period, in two solutions separated by an artificial lipid membrane. The result of this test is expressed in units of diffusion rate (permeation). The procedure comprised the following steps: (1) preparing the membrane, which contains lipids, with specific activating solutions, creating a hydrophobic surface that simulates the intestinal epithelial cell; (2) adding the test compound at a concentration of 10 µM to the donor aqueous phase (buffered pH 7.4); (3) after 5 h at room temperature, an aliquot of the solution receptor (buffered at pH 7.4) is removed, in which the compound is transported by passive diffusion, for quantification by HPLC–MS/MS.
On the technique in general: PAMPA measures passive passage across an artificial lipid membrane.

Series [8] is described as follows: Metabolic stability in rat liver microsomes. The series is classed as in vitro ADME. Particulars: for Metabolism rate class: rat microsomes, classes by Clint; for CLint scaled / half-life: rat, microsomes. The procedure: The experiment was carried out by the Center for Applied Mass Spectrometry (CEMSA), São Paulo, Brazil. In brief, the metabolic stability assay was performed in the presence of rat liver microsomes. Compounds were incubated at 37 °C in a buffered solution containing 1 mg/mL of microsomal protein and nicotinamide adenine dinucleotide […]. The reaction was stopped at different times using acetonitrile. The compound concentration was determined by HPLC–MS/MS at each incubation time (0, 5, 15, and 30 min) and the percentage remaining versus time curve was determined. Verapamil was used as an analytical control (data not shown).

For the compound `Cc1cc(NCc2ccc(OCc3ccc(Cl)cc3)cc2)c2cc(Br)ccc2n1` [Compound 9n, N-(4-((4-chlorobenzyl)oxy)benzyl)-6-bromo-2-methylquinolin-4-amine], the melting point (in general, the temperature, or range, at which the solid turns liquid) lay in the range of 184 to 186 °C. For the same compound, in series [1], the MIC – broadly, the lowest concentration that inhibits growth of the organism – was found to be 2.7 µM. Besides, in [2], the CC50 (usually the concentration that lowers cell viability or growth by half) at 72 h was above 3000 nM. Besides, in [3], the “Vero cell viability in words” value is reported as “not significantly altered” and the CC50 was above 3000 nM. For the same compound, the CC50 at 72 h in series [4] is above 3000 nM. In series [5], the “HepG2 cell viability in words” value is given as “not significantly altered” and the half-maximal cytotoxic concentration (CC50) was above 3000 nM. Moreover, in series [6], the “Chemical Stability pH 1.2, remaining compound” value is on record as 14.9%; the “Chemical Stability pH 7.4, remaining compound” value is recorded as 5.0%; the “Chemical Stability pH 9.1, remaining compound” value was 13.8%. Also, in [7], the “Passive permeability (PAMPA) in words” value is reported as “low permeability” and the Papp (commonly a coefficient for how fast a substance crosses the barrier) at 5 h, 10 µM stood at 0.3 ×10⁻⁶ cm/s. In [8], the Metabolism rate class entry was “moderate (moderate metabolism rates (47 ≤ Clint ≥ 16))”; the CLint scaled – broadly, the rate of metabolic loss divided by the concentration – was determined as 39 mL/min/kg; the half-life – broadly, how long it takes for the measured level to halve – is 19 min.

For `Cc1cc(NCc2ccc(OCc3ccc(F)cc3)cc2)c2cc(Br)ccc2n1` [Compound 9o, N-(4-((4-fluorobenzyl)oxy)benzyl) 6-bromo-2-methylquinolin-4-amine], the melting point was 173 to 175 °C. Besides, the MIC in series [1] was determined as 2.8 µM. In series [2], this compound had a cytotoxic concentration (CC50) at 72 h above 3000 nM. For the same compound, in [3], the “Vero cell viability in words” value is recorded as “not significantly altered” and the half-maximal cytotoxic concentration (CC50) was above 3000 nM. Besides, in series [4], the CC50 at 72 h is above 3000 nM. Moreover, in series [5], the “HepG2 cell viability in words” value is “not significantly altered” and the CC50 was above 3000 nM. In series [6], the “Chemical Stability pH 1.2, remaining compound” value was found to be 22.9%; the “Chemical Stability pH 7.4, remaining compound” value stood at 7.6%; the “Chemical Stability pH 9.1, remaining compound” value is given as 11.1%. Moreover, in series [7], the “Passive permeability (PAMPA) in words” value was “high permeability” and the Papp at 5 h, 10 µM worked out at 3 ×10⁻⁶ cm/s. For the same compound, in [8], the Metabolism rate class entry was “high (high metabolism rates (Clint > 47))”, the intrinsic clearance (CLint scaled) stood at 56 mL/min/kg and the half-life was found to be 7.9 min.
